Measured values: patent US8563576B2 (Vertex Pharmaceuticals Incorporated, priority 2008, dated 2013)

Tests used:
Assay type in all cases: biochemical
PKC theta kinase = PKC theta kinase (Homo sapiens, UniProt Q04759); test: PKC theta kinase coupled-enzyme (NADH consumption) Ki assay; conditions: 240 μM ATP, 18 nM PKC theta kinase, 30° C.
Method: (§1) l An assay buffer solution was prepared which consisted of 100 mM HEPES (pH 7.5), 10 mM MgCl2, 25 mM NaCl, 0.1 mM EDTA and 0.01% Brij. […] To 60 μL of this enzyme buffer, in a 384 well plate, was added 2 μL of VRT stock solution in DMSO. The mixture was allowed to equilibrate for 10 mins at 30° C. The enzyme reaction was initiated by the addition of 5 μL stock ATP solution prepared in assay buffer to a final assay concentration of 240 μM. Initial rate data was determined from the rate of change of absorbance at 340 nm (corresponding to stoichiometric consumption of NADH) using a Molecular Devices Spectramax plate reader (Sunnyvale, Calif.) over 15 mins at 30° C. […] Ki values were calculated from initial rate data by non-linear regression using the Prism software package (Prism 4.0a, Graphpad Software, San Diego, Calif.).

PKC delta kinase = PKC delta kinase (Homo sapiens, UniProt Q05655); test: PKC delta kinase coupled-enzyme (NADH consumption) Ki assay; conditions: 150 μM ATP, 46 nM PKC delta kinase, 30° C.
PKC delta kinase, sequence (Q05655 whole entry): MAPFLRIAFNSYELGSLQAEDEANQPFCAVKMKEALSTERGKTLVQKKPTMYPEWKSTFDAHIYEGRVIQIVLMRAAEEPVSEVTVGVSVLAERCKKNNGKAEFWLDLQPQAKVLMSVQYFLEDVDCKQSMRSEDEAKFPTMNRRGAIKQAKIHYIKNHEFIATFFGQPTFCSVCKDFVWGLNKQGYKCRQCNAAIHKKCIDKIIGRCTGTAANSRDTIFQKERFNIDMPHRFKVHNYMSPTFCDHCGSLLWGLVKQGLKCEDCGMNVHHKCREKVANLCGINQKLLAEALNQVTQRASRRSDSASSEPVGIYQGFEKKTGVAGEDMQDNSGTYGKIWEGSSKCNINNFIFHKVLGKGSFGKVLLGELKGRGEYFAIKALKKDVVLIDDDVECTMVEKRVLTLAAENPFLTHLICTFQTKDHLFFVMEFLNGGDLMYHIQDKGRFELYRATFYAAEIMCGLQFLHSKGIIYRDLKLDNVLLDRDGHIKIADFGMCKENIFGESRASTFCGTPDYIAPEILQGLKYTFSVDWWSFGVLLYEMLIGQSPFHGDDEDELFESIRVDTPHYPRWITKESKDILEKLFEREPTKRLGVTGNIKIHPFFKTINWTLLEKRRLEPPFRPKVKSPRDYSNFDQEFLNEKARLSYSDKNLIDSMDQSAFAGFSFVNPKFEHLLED
Method: as §1, with “An” for “l An”, “To 16” for “To 60”, “added 1” for “added 2”, “of 16” for “of 5”, “of 150” for “of 240”

PKC alpha kinase = PKC alpha kinase (Homo sapiens, UniProt P17252); test: PKC alpha kinase coupled-enzyme (NADH consumption) Ki assay; conditions: 130 μM ATP, 4.5 nM PKC alpha kinase, 30° C.
Method: as §1, with “An” for “l An”, “mM EDTA, 100 μM CaCl2” for “mM EDTA”, “To 16” for “To 60”, “added 1” for “added 2”, “of 16” for “of 5”, “of 130” for “of 240”

PKC theta kinase, sequence (Q04759 whole entry): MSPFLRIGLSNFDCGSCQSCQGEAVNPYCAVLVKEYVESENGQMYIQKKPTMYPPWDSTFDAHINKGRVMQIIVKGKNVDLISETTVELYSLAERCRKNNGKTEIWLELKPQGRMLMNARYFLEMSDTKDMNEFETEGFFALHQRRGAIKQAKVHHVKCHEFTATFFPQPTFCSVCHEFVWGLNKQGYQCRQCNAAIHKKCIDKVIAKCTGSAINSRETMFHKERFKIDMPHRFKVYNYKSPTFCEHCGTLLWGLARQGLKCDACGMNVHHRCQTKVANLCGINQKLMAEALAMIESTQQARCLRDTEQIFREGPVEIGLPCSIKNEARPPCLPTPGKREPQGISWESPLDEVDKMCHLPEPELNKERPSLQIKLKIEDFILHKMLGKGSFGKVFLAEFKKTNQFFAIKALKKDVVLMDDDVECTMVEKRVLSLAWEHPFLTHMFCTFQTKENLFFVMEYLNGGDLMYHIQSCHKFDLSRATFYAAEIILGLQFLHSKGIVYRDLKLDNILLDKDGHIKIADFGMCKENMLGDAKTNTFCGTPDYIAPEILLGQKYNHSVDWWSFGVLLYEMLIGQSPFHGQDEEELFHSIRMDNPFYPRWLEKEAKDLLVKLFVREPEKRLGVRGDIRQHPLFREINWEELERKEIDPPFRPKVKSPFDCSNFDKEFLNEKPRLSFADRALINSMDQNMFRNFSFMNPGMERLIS

Ki (PKC theta kinase) | Ki (PKC delta kinase) | Ki (PKC alpha kinase) | SMILES
> 2800 nM | – | – | Cc1sc(N2CCCNCC2)nc1-c1n[nH]c2ncccc12 [Compound 1]
> 700 nM | > 2000 nM | > 1250 nM | CC(C)C[C@H]1CN(c2cn(C)c(-c3n[nH]c4ncccc34)n2)CCN1 [Compound 6, 3-(4-((S)-3-isobutylpiperazin-1-yl)-1-methyl-1H-imidazol-2-yl)-1H-pyrazolo[3,4-b]pyridine]
< 50 nM | < 2800 nM | > 1250 nM | CC(C)C[C@H]1CN(c2csc(-c3n[nH]c4ncccc34)n2)CCN1 [Compound 3, (S)-4-(3-isobutylpiperazin-1-yl)-2-(1H-pyrazolo[3,4-b]pyridin-3-yl)thiazole]
< 500 nM | < 2800 nM | > 1250 nM | c1cnc2[nH]nc(-c3nn(C4CCNCC4)c4ccccc34)c2c1 [Compound 4, 3-(1-(piperidin-4-yl)-1H-indazol-3-yl)-1H-pyrazolo[3,4-b]pyridine]
> 700 nM | > 2000 nM | > 1250 nM | Cc1cn(C2CCNCC2)nc1-c1n[nH]c2ncccc12 [Compound 5, 3-(4-methyl-1-(piperidin-4-yl)-1H-pyrazol-3-yl)-1H-pyrazolo[3,4-b]pyridine]
< 500 nM | > 2000 nM | > 1250 nM | Cc1sc(N2CCN[C@@H](CC(C)C)C2)nc1-c1n[nH]c2ncccc12 [Compound 2]
